Data taken from paper PMC1847690 (PLoS Pathogens, 2007).

Experiments:
[1] = target: PknK kinase domain (PknK1–289) (Mycobacterium tuberculosis, UniProt P9WI65)
[2] = target: T1, UsfX (Rv3287c) (Mycobacterium tuberculosis, UniProt P9WGX7)
T1 construct: gene rsbW

[3] = target: PknE kinase domain (PknE1–286) (Mycobacterium tuberculosis, UniProt P9WI77)
[4] = target: PknB kinase domain (PknB1–308) (Mycobacterium tuberculosis, UniProt P9WI81)
[5] = target: PknA kinase domain (PknA1–337) (Mycobacterium tuberculosis, UniProt P9WI83)
[6] = target: PknD kinase domain (PknD1–378) (Mycobacterium tuberculosis, UniProt P9WI79)
Sequence of PknD kinase domain (PknD1–378) (P9WI79 1-378): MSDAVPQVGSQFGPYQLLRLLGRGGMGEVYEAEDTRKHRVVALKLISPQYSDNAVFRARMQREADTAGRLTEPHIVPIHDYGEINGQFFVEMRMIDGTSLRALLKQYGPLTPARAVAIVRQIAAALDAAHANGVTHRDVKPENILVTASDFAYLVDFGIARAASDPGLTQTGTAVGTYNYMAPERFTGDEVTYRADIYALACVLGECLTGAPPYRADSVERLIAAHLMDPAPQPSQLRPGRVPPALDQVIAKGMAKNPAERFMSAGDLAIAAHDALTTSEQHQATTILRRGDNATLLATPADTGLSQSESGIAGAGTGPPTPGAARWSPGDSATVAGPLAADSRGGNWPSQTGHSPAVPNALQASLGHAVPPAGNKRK

Sequence of PknB kinase domain (PknB1–308) (P9WI81 1-308): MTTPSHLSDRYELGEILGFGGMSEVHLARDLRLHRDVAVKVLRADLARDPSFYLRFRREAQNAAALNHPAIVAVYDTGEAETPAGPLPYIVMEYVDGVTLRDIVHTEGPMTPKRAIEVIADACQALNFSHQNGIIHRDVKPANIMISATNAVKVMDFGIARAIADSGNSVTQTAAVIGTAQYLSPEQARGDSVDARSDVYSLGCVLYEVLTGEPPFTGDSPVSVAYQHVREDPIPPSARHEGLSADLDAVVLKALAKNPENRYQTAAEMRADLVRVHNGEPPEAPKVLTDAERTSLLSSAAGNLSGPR
T1 sequence (P9WGX7 whole entry): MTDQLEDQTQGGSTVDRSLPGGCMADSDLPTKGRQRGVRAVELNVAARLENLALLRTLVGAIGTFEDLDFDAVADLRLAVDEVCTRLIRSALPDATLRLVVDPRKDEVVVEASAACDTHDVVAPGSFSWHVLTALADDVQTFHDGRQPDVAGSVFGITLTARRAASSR
Sequence of PknE kinase domain (PknE1–286) (P9WI77 1-286): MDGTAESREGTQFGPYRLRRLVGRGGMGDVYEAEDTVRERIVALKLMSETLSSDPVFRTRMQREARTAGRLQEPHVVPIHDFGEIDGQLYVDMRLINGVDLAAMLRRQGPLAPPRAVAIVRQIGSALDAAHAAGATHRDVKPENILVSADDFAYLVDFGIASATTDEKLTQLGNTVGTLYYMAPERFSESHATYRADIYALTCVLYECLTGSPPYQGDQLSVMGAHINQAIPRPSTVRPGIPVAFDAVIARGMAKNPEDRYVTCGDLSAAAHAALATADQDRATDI
Sequence of PknA kinase domain (PknA1–337) (P9WI83 1-337): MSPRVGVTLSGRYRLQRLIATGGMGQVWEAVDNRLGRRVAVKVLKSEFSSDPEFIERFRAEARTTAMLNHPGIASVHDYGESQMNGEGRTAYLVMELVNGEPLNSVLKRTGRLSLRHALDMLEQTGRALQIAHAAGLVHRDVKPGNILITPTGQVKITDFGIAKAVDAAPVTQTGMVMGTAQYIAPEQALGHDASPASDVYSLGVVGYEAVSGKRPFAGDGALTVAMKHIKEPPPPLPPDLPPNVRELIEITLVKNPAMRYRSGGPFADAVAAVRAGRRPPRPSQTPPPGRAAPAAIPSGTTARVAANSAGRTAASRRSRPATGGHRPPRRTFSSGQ
Sequence of PknK kinase domain (PknK1–289) (P9WI65 1-289): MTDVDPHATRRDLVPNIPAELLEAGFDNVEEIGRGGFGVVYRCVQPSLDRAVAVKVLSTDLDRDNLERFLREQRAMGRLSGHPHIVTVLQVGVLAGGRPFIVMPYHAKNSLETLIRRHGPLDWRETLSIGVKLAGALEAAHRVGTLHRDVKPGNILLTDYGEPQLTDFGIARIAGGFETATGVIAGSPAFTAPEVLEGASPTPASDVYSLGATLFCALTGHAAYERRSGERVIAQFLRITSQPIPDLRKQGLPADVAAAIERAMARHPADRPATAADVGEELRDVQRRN

Row | SMILES | [γ-32P]ATP transfer to MyBP, autoradiography [1] | phosphorylation of MyBP, autoradiography [2] | [γ-32P]ATP transfer to Rv0516c, RshA, Rv1904 and RsfA, autoradiography [3] | [γ-32P]ATP transfer to Rv0516c and RshA, autoradiography [4] | [γ-32P]ATP transfer to MyBP and the MBP tag, autoradiography [5] | dose-dependent inhibition [6]
1 | Nc1ncnc2c1ncn2[C@@H]1O[C@H](COP(=O)(O)OP(=O)(O)OP(=O)(O)O)[C@@H](O)[C@H]1O [ATP] | At concentrations of each kinase domain equally active in phosphorylating the nonspecific substrate, MyBP | we incubated these proteins under conditions in which UsfX phosphorylated the model substrate | PknE weakly phosphorylated Rv1904 and RsfA (Rv1365c) | PknB and PknE also phosphorylated the anti–sigma factor RshA (Rv3221A) | The MBP tag was phosphorylated by the PknA, PknB, and PknE kinase domains | –
2 | O=C1c2ccccc2-c2n[nH]c3cccc1c23 [SP600125] | – | – | – | – | – | The SP600125 inhibitor blocked this Rv0516c phosphorylation (Figure 3B) in a dose-dependent manner
